# pIC50: −log10 of the molar value.
# Target: T1, human intracellular domain of KDR (VEGF Receptor-2) (Homo sapiens, UniProt P35968)
# T1 construct: A fusion protein containing the intracellular domain (amino acids 793 to 1357) of the KDR and N-terminally tagged to GST; made in house; host or cells: Sf9 insect cells (baculovirus, pDEST20) for GST-KDR-cyt; E. coli BL21 (pGEX-4T-1) for GST-PLCγ
# Assay: In vitro KDR kinase assay
# Type: biochemical
# Conditions: IC50 as molar concentration; GST-KDR-cyt, substrate phospholipase Cγ, ATP 100 μM, 30 min room temperature, time-resolved fluorometry
# Summary of the method: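 Sf9-expressed, constitutively active human KDR intracellular domain, diluted 3000–3500 fold, incubated 30 min at room temperature with 100 μM ATP on phospholipase Cγ-coated wells in TBS pH 7.4 with Mg acetate, compounds up to 10 μM, 0.1% DMSO max. Phosphotyrosine detected by Eu-PY-20 time-resolved fluorescence; IC50 by linear interpolation around 50% inhibition.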
# T1 sequence (P35968 794-1356 limits assumed): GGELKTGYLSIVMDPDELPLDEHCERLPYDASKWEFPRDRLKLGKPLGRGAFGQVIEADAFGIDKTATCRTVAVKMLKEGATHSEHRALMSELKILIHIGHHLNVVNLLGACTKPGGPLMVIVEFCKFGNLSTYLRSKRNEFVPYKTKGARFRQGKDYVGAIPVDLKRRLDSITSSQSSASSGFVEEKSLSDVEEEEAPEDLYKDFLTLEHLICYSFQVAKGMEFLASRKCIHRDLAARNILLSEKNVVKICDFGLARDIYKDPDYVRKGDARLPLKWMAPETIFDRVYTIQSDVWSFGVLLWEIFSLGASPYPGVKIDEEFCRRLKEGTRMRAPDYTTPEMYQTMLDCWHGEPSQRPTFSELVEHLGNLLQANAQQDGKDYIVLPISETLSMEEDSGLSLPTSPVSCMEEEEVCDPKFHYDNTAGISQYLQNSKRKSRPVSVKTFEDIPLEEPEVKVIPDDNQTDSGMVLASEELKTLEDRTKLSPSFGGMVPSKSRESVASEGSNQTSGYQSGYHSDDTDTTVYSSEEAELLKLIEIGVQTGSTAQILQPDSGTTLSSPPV
row,Structure (SMILES),pIC50
1,"O=C(NOCC1CC1)c1ccccc1NCc1ccncc1 [Compound 114, N-Cyclopropylmethoxy-2-[(pyridin-4-ylmethyl)-amino]-benzamide]",7.00
2,"O=C(NOCc1ccc(Cl)s1)c1ccccc1NCc1ccncc1 [Compound 111, N-(5-Chloro-thiophen-2-ylmethoxy)-2-[(pyridin-4-ylmethyl)-amino]-benzamide]",7.10
3,"COc1ccc(CNc2ncccc2C(=O)NOCc2ccc(OC)cc2)cc1 [Compound 35, 2-(4-Methoxy-benzylamino)-N-(4-methoxy-benzyloxy)-nicotinamide]",6.00
4,"O=C(NOCc1ccc(F)cc1)c1ccccc1NCc1ccnc(Br)c1 [Compound 204, 2-[(2-Bromo-pyridin-4-ylmethyl)-amino]-N-(4-fluoro-benzyloxy)benzamide]",7.20
5,"O=C(NOCc1cc(Cl)ccc1Cl)c1ccccc1NCc1ccncc1 [Compound 19, N-(2,5-Dichloro-benzyloxy)-2-[(pyridin-4-ylmethyl)-amino]-benzamide]",7.20
6,"COc1ccc(CONC(=O)c2ccccc2NCc2ccncc2)cc1C(F)(F)F [Compound 63, N-(4-Methoxy-3-trifluoromethyl-benzyloxy)-2-[(pyridin-4-ylmethyl)-amino]-benzamide]",7.20
7,"O=C(NOCc1ccccc1OC(F)(F)F)c1ccccc1NCc1ccncc1 [Compound 66, 2-[(Pyridin-4-ylmethyl)-amino]-N-(2-trifluoromethoxy-benzyloxy)-benzamide]",7.20
8,"CC(C)CCONC(=O)c1ccccc1NCc1ccncc1 [Compound 118, N-(3-Methyl-butoxy)-2-[(pyridin-4-ylmethyl)-amino]-benzamide]",7.80
9,"O=C(NOCCOc1ccccc1)c1ccccc1NCc1ccncc1 [Compound 30, N-(2-Phenoxy-ethoxy)-2-[(pyridin-4-ylmethyl)-amino]-benzamide]",6.00
10,"COc1cc(C#N)ccc1CONC(=O)c1cccnc1NCc1ccncc1 [Compound 162, N-(4-Cyano-2-methoxy-benzyloxy)-2-[(pyridin-4-ylmethyl)-amino]-nicotinamide]",7.20
11,O=C(NOCC1CCOCC1)c1ccccc1NCc1ccnc2ccccc12 [compound 234],7.20
12,"O=C(NOCc1ccc(F)cc1)c1ccccc1NCc1ccc2c(c1)CCO2 [Compound 195, 2-[(2,3-Dihydro-benzofuran-5-ylmethyl)-amino]-N-(4-fluoro-benzyloxy)-benzamide]",7.10
13,"O=C(NOCc1cc(Cl)nc(Cl)c1)c1ccccc1NCc1ccncc1 [Compound 104, N-(2,6-Dichloro-pyridin-4-ylmethoxy)-2-[(pyridin-4-ylmethyl)-amino]-benzamide]",7.20

# Second part, the compound after the results:
row,pIC50,Structure (SMILES)
1,7.40,C=C(C)C(=O)OCCNC(=O)Nc1cc(CNc2ccccc2C(=O)NOCC2CCCC2)ccn1 [compound 219]
2,7.50,"COc1cccc(CONC(=O)c2ccccc2NCc2ccncc2)c1 [Compound 8, N-(3-Methoxy-benzyloxy)-2-[(pyridin-4-ylmethyl)-amino]-benzamide]"
3,7.50,"O=C(NOCc1ccccc1C(F)(F)F)c1ccccc1NCc1ccncc1 [Compound 5, 2-[(Pyridin-4-ylmethyl)-amino]-N-(2-trifluoromethyl-benzyloxy)-benzamide]"
4,7.20,"O=C(NOCc1cccc(C#CCO)c1)c1ccccc1NCc1ccncc1 [Compound 50, N-[3-(3-Hydroxy-prop-1-ynyl)-benzyloxy]-2-[(pyridin-4-ylmethyl)-amino]-benzamide]"
5,7.20,"O=C(NOCc1ccccc1I)c1cccnc1NCc1ccncc1 [Compound 160, N-(2-Iodo-benzyloxy)-2-[(pyridin-4-ylmethyl)-amino]-nicotinamide]"
6,7.80,"O=C(NOCc1ccccc1Br)c1ccccc1NCc1ccncc1 [Compound 13, N-(2-Bromo-benzyloxy)-2-[(pyridin-4-ylmethyl)-amino]-benzamide]"
7,7.60,"N#Cc1ccc(CONC(=O)c2ccccc2NCc2ccncc2)c(F)c1 [Compound 76, N-(4-Cyano-2-fluoro-benzyloxy)-2-[(pyridin-4-ylmethyl)-amino]-benzamide]"
8,7.70,"Cc1ccc(CONC(=O)c2ccccc2NCc2ccncc2)cc1F [Compound 41, N-(3-Fluoro-4-methyl-benzyloxy)-2-[(pyridin-4-ylmethyl)-amino]-benzamide]"
9,7.30,"O=C(NOCc1ccc(Cl)c(Cl)c1)c1ccccc1NCc1ccncc1 [Compound 15, N-(3,4-Dichloro-benzyloxy)-2-[(pyridine-4-ylmethyl)-amino]-benzamide]"
10,8.00,"Cc1ccc(CONC(=O)c2ccccc2NCc2ccncc2)c(F)c1F [Compound 40, N-(2,3-Difluoro-4-methyl-benzyloxy)-2-[(pyridin-4-ylmethyl)-amino]-benzamide]"
11,7.40,"CC(C)(C)CONC(=O)c1ccccc1NCc1ccncc1 [Compound 116, N-(2,2-Dimethyl-propoxy)-2-[(pyridin-4-ylmethyl)-amino]-benzamide]"
12,7.40,"COc1ccc(CONC(=O)c2ccccc2NCc2ccncc2)cc1 [Compound 7, N-(4-Methoxy-benzyloxy)-2-[(pyridin-4-ylmethyl)-amino]-benzamide]"
13,8.10,O=C(NCCO)Nc1cc(CNc2ccccc2C(=O)NOCC2CCCC2)ccn1 [compound 221]
14,8.20,CC(=O)OCC(=O)Nc1cc(CNc2ccccc2C(=O)NOCc2ccc(C#N)cc2)ccn1 [compound 222]
